Measured values taken from patent US11505592B2, “Diagnosis and therapy of multiple sclerosis” (PRINDEX S.R.L., priority 2015, dated 2022).

Columns and labels:
[1] = system: MS IgG; assay: Indirect ELISA of MS IgG binding to receptor peptides; design: species or system human; conditions: 100 μM peptide; 200 μg immunoglobulins
Description: FIG. 6: Dose-response curves of the interaction between MS sera and DDSK peptide. (A) Sera of Multiple Sclerosis patients and Control (control group is defined in material and method below) (200 μg) were incubated with different concentrations (50-100-250 μM) of peptide DDSK. For the detection, inventors used a secondary antibody anti human IgG conjugated with HRP and (3,3′,5,5′-Tetramethylbenzidine) TMB solution that was added for each well and incubated for 15-30 min. Equal volume of stopping solution (2 M H2SO4) was added to the plate and absorbance (optical density) of plate was read at 450 nm. The statistical analysis derived from 9 experiments. Values are mean±SEM. *P<0.05 MS vs CTRL (B) Linear representation of dose-response curve Values are mean±SEM. *P<0.05 MS vs CTRL.
FIGS. 7A, 7B, 7C and 7D: MS sera recognize specially receptor's peptides. […] Equal volume of stopping solution (2 M H2SO4) was added to the plate and absorbance (optical density) of plate was read at 450 nm. […]
A. Sera of Multiple Sclerosis patients and Control (200 μg) were incubated in absence (uncoated) or presence of 100 μM of DDSK peptide. […] Equal volume of stopping solution (2 M H2SO4) was added to the plate and absorbance (optical density) of plate was read at 450 nm. […]
Diluted peptide (20 μg/ml) was coated to the wells of a PVC microtiter plate and incubated at 4° C. overnight. […] For the detection, we used a secondary antibody anti human (recognized constant region of the patient antibody conjugated with HRP and (3,3′,5,5′-Tetramethylbenzidine) TMB solution that was added for each well and incubated for 15-30 min. Equal volume of stopping solution (2 M H2SO4) was added to the plate and absorbance (optical density) of plate was read at 450 nm.
To evaluate the peptide concentration to use for ELISA assay we performed a dose-response curve. […] (named DDSK in the figures) and the absorbance (optical density) of plate was read at 450 nm. […]

[2] = system: MS sera; assay: PEPSCAN-based ELISA, binding of MS sera to library peptides; design: species or system human; conditions: ELISA binding value, MS sera n = 9
Procedure, shortened: (§1)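 Linear and CLIPS-constrained peptides on PEPSCAN cards probed with human sera (1:2500 or 1:1000) in horse serum/ovalbumin blocking buffer, then peroxidase-conjugated secondary (1/1000, 1 h, 25° C) and ABTS/H2O2 for 1 h. CCD images taken before and after coloring were subtracted to give each peptide's binding value.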

[3] = system: CTRL sera; assay: PEPSCAN-based ELISA, binding of control (CTRL) sera to library peptides; design: species or system human; conditions: ELISA binding value, CTRLs n = 10
Procedure, shortened: as §1

[4] = system: MO3-13 cells; assay: Determination of reactive oxygen species (DCF fluorescence) in MO3-13 cells; assay type: cell-based, human; conditions: 50 μM peptide 30 min, then 200 μg/ml IgG MS 30 min
Description: FIG. 10A: DDSK peptide reverts the effects of Ig from MS patients on ROS levels in MO3-13 cells. MO3-13 cells were grown to semi-confluence in 24 multiwell plates and incubated for 18 h in medium containing 0.2% FBS. The cells were washed twice with FBS free medium, incubated with 50 μM of DDSK for 30 min and then with 200 μg/ml of IgG from Control (IgGCtr) or MS (IgGMS) patients for 30 min. Then, the cells were incubated with 10 μM DCHF-DA for 10 min, washed three times and DCF fluorescence was measured using a plate reader fluorometer. The histograms show the mean+/−SEM values obtained in 5 different experiments from 7 control and 7 MS subjects. # p<0.05 vs IgGCtr; *p<0.05 vs IgGMS.
MO3-13 cells were grown to semi-confluence in 24 multiwell plates and incubated for 18 h in medium containing 0.2% FBS. The cells were washed twice with FBS free medium, incubated with 50 μM of Scrambled peptide (Sc) for 30 min and then with 200 μg/ml of IgG from Control (IgGCtr) or MS (IgGMS) patients for 30 min. Then, the cells were incubated with 10 μM DCHF-DA for 10 min, washed three times and DCF fluorescence was measured using a plate reader fluorometer. The histograms show the mean+/−SEM values obtained from 3 control and 3 MS subjects. *p<0.05 vs IgGCtr.
ROS levels were determined using the membrane-permeant fluorogenic probe 5,6-carboxy-2′,7′-dichlorofluoresceindiacetate, DCHFDA (Molecular Probes, Leiden, the Netherlands). The assay was based on the fluorescence detection of dichlorofluorescein (DCF), formed by ROS-mediated oxidation of the non-fluorescent precursor, dichlorofluorescin.
MO3-13 cells were grown to semi-confluence in 24 multiwell plates (45000 cell/well) and incubated for 18 h in medium containing 0.2% FBS before the experiments. […] DCF fluorescence was measured using the plate reader Fluoroskan Ascent FL fluorometer (Thermo Electron Oy, Vantaa, Finland) and data analyzed by Ascent software.

Sequence | MEAN MS ([2]; NOX2 library) | MEAN CTRL ([3]; NOX2 library) | other results
LYGYRWPLPSKL |  |  | binding of MS IgG to peptide respect to scrambled [1]: bind specifically
NESYLNFARKRIKNP [SEQ ID NO: 109] | 602.889 | 333.75 | 
NFARKRIKN [SEQ ID NO: 58] | 613.833 | 288.95 | 
NFARKRIKNPAAGLY [SEQ ID NO: 77] | 604.167 | 323.85 | 
NITVCEQKISAAGKI [SEQ ID NO: 96] | 564.500 | 314.2 | 
QDDSKVFKEGAALLA [Peptide 33] |  |  | MEAN MS ([2]; 5HT2A receptor library): 439.11; MEAN CTRL ([3]; 5HT2A receptor library): 263.70
QKISEWGKI [SEQ ID NO: 146] | 508.333 | 298.2 | 
QKISEWGKIKAAPIP [SEQ ID NO: 88] | 701.889 | 364.3 | 
QNESYLNFARAAIKN [SEQ ID NO: 113] | 421.722 | 244 | 
QNESYLNFARKRIKN [SEQ ID NO: 63] | 610.778 | 309.65 | 
RQNESYLNFARKRIK [SEQ ID NO: 76] | 458.833 | 241.2 | 
STTNSLMQLNAATRL [Peptide 31] |  |  | MEAN MS ([2]; 5HT2A receptor library): 611.83; MEAN CTRL ([3]; 5HT2A receptor library): 385.15
SYLNFARKRIAAPEG [SEQ ID NO: 71] | 472.000 | 259.75 | 
TILYGYRWPLPSKLC [Peptide 29] |  |  | MEAN MS ([2]; 5HT2A receptor library): 651.50; MEAN CTRL ([3]; 5HT2A receptor library): 378.20
TVCEQKISEWGKIKE [SEQ ID NO: 94] | 514.944 | 289.4 | 
TVDSENRTNLAAEGC [Peptide 23] |  |  | MEAN MS ([2]; 5HT2A receptor library): 587.33; MEAN CTRL ([3]; 5HT2A receptor library): 348.10
TWYAHNCRLQ [Scrambled peptides, scrambled peptide used as negative control, reference compound] |  |  | effect of peptide preincubation on ROS levels of IgG MS treated cells [4]: did not influence
VNARVNNSDPAAVAL [SEQ ID NO: 118] | 426.444 | 219.15 | 
WCVNARVNNSDPYSV [SEQ ID NO: 121] | 283.889 | 163.8 | 
WGKIKECPI [SEQ ID NO: 116] | 501.389 | 303.25 | 
YLNFARKRI [SEQ ID NO: 140] | 601.667 | 345.85 | 
YLNFARKRIKAAEGG [SEQ ID NO: 119] | 299.167 | 181.3 | 
YRWPLPSKL [Peptide 5] |  |  | MEAN MS ([2]; 5HT2A receptor library): 566.00; MEAN CTRL ([3]; 5HT2A receptor library): 285.70
